Source: patent publication US7417045B2, “Heterocyclic substituted pyridine or phenyl compounds with CXCR3 antagonist activity” (Schering Corporation, priority 2005, dated 2008)

These compounds were tested against T1, human CXCR3 (N-delta 4) (Homo sapiens, UniProt P49682) (assay: Human CXCR3 (N-delta 4) Scintillation Proximity Assay (SPA), [125I] IP-10 binding). Conditions: IC50 rating; [125I] IP-10 displacement, Ba/F3-hCXCR3 (N-delta 4) membranes.
T1 construct: CD8 leader (N); Flag tag; expressed in transfected cells; membranes
T1 sequence (P49682 5-368 limits assumed): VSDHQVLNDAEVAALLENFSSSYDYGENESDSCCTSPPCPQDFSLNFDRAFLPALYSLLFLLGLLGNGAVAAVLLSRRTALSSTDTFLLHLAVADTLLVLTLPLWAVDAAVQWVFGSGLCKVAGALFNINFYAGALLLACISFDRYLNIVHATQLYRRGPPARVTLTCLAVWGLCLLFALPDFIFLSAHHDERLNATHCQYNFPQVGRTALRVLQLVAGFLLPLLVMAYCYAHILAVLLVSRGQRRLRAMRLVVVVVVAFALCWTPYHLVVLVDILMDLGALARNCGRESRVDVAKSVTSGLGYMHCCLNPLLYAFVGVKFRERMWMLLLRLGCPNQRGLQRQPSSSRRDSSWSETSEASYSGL
Procedure, shortened: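 Membranes from Ba/F3 cells stably expressing Flag-tagged human CXCR3 (N-delta 4), 2 μg per point, precoupled 1 h to WGA SPA beads in HEPES buffer with CaCl2, MgCl2, NaCl, 1.0% BSA. Compounds titrated with 25 pM [125I] IP-10; bound label counted after 3 hr at room temperature.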

Row | SMILES | IC50
1 | CC[C@H]1CN(c2ncc(-c3ncc[nH]3)cc2Cl)CCN1C1CCN(Cc2c(F)cc(F)cc2F)CC1 [Compound 49] | < 25 nM
2 | CC[C@H]1CN(c2ncc(-c3ncc[nH]3)cc2Cl)CCN1C1CCN(Cc2ccc(Cl)cc2/C(N)=N/O)CC1 [Compound 6] | < 25 nM
3 | CC[C@H]1CN(c2ncc(-c3nnc(COC(C)=O)o3)cc2Cl)CCN1C1CCN(Cc2ccc(Cl)cc2F)CC1 [Compound 84] | < 25 nM
4 | CC[C@H]1CN(c2ncc(-c3ncc[nH]3)cc2Cl)CCN1C1CCN(Cc2ccc(I)cc2)CC1 [Compound 3] | < 25 nM
5 | CC[C@H]1CN(c2ncc(-c3ncc[nH]3)cc2Cl)CCN1C1CCN(C(=O)c2ccc(Cl)cc2)CC1 [Compound 47] | < 25 nM
6 | CC[C@H]1CN(c2ncc(C3=NCCN3)cc2Cl)CCN1C1CCN(Cc2ccc(C#CCOC)cc2)CC1 [Compound 34] | < 25 nM
7 | CCNc1nnc(-c2cnc(N3CCN(C4CCN(C(=O)c5ccc(Cl)nc5N)CC4)[C@@H](CC)C3)c(Cl)c2)o1 [Compound 73] | < 25 nM
8 | CC[C@H]1CN(c2ncc(C3=NCCN3)cc2Cl)CCN1C1CCN(C(=O)c2ccc(Cl)nc2N)CC1 [Compound 42] | < 25 nM
9 | CC[C@H]1CN(c2ncc(-c3cnco3)cc2Cl)CCN1C1CCN(Cc2ccc(Cl)cc2)CC1 [Compound 108] | 25 to 100 nM
10 | CC[C@H]1CN(c2ncc(-c3ncc[nH]3)cc2Cl)CCN1C1CCN(C(=O)c2ccc(-n3cccc3)cc2)CC1 [Compound 67] | < 25 nM
11 | CC[C@H]1CN(c2ncc(-c3ncc[nH]3)cc2Cl)CCN1C1CCN(Cc2ccc(Cl)cc2C(=O)NN)CC1 [Compound 60] | < 25 nM
12 | CC[C@H]1CN(c2ncc(-c3ncc[nH]3)cc2Cl)CCN1C1CCN([C@@H](C(=O)NC)c2ccc(Cl)cc2)CC1 [Compound 66] | < 25 nM
13 | CC[C@H]1CN(c2ncc(C3=NCCN3)cc2Cl)CCN1C1CCN(Cc2ccc(C#CC(C)(C)O)cc2)CC1 [Compound 54] | < 25 nM
14 | CC[C@H]1CN(c2ncc(C3=NCCN3)cc2Cl)CCN1C1CCN(Cc2ccc(F)cc2)CC1 [Compound 11] | < 25 nM
15 | CC[C@H]1CN(c2ncc(-c3nc(C(O)C(F)(F)F)cn3C(O)C(F)(F)F)cc2Cl)CCN1C1CCN(C(=O)c2ccc(Cl)cc2)CC1 (stereo partly drawn) [Compound 163] | > 100 nM
16 | CC[C@H]1CN(c2ncc(-c3ncc[nH]3)cc2Cl)CCN1C1CCN(C(C(=O)Nc2ccccn2)c2ccc(Cl)cc2)CC1 (stereo partly drawn) [Compound 116] | 25 to 100 nM
17 | CC[C@H]1CN(c2ncc(-c3ncc[nH]3)cc2Cl)CCN1C1CCN(Cc2ccc(C#CC(C)(C)NC(=O)OC(C)(C)C)cc2)CC1 [Compound 101] | < 25 nM

Now from value to compound:

Row | IC50 | SMILES
18 | > 100 nM | CC[C@H]1CN(c2ncc(-c3ncc[nH]3)cc2Cl)CCN1C1CCN(C(=O)c2ccc(-c3ccccc3)cc2)CC1 [Compound 132]
19 | > 100 nM | CC[C@H]1CN(c2ncc(-c3ncc[nH]3)cc2Cl)CCN1C1CCN(Cc2ccc(C#CC(C)(C)NS(C)(=O)=O)cc2)CC1 [Compound 137]
20 | > 100 nM | CC[C@H]1CN(c2ncc(-c3ncc[nH]3)cc2Cl)CCN1C1CCN(C(=O)c2ccc(-n3cncn3)cc2)CC1 [Compound 135]
21 | > 100 nM | CC[C@H]1CN(c2ncc(-c3ncc[nH]3)cc2Cl)CCN1C1CCN(C(=O)c2ccc(C#CC(C)(C)NC(=O)OC(C)(C)C)cc2)CC1 [Compound 142]
22 | > 100 nM | CC[C@H]1CN(c2ncc(-c3ncc[nH]3)cc2Cl)CCN1C1CCN(C(=O)c2ccc(-n3ccnc3)cc2)CC1 [Compound 156]
23 | < 25 nM | CC[C@H]1CN(c2ncc(C3=NCCN3)cc2Cl)CCN1C1CCN([C@H](CO)c2ccc(Cl)cc2)CC1 [Compound 64]
24 | < 25 nM | CC[C@H]1CN(c2ncc(-c3ncc[nH]3)cc2Cl)CCN1C1CCN(C(=O)c2ccc(Cl)cc2O)CC1 [Compound 78]
25 | < 25 nM | CC[C@H]1CN(c2ncc(-c3ncc[nH]3)cc2Cl)CCN1C1CCN(C(=O)c2ccc(Br)cc2)CC1 [Compound 41]
26 | > 100 nM | CC[C@H]1CN(c2ncc(-c3nnc(C(C)(C)OC(C)=O)o3)cc2Cl)CCN1C1CCN(Cc2ccc(Cl)cc2F)CC1 [Compound 141]
27 | < 25 nM | CC[C@H]1CN(c2ncc(-c3ncc[nH]3)cc2Cl)CCN1C1CCN(Cc2ccc(Cl)cc2C(=O)O)CC1 [Compound 43]
